Measured values as given in patent US20240024403A1, “Compositions and Methods for Managing Weight” (Unigen, Inc., priority 2012, published 2024).
Entries after “also recorded” stand apart in the source; their conditions may differ.

Experiment: High fat diet induced obesity (DIO) mouse model
Format: in vivo, C57CL/6J mice
Design: NSAH (sum) [NASH score]: scale not given here
Settings: for Total Body Weight / Body Weight: in g (unit assumed)
Experimental: C57CL/6J mice aged 4-6 weeks (Korea Research Institute of Bioscience & Biotechnology, Ohchang, Korea) were housed in Polycarbonate cages (five mice per cage) in a room with a 12 hr:12 hr light-dark cycle and an ambient temperature of 24° C. All the mice were fed a commercial chow diet for 1 week after arrival in the animal facility. Mice were then divided into normal and obesity groups and fed with normal diet (ND) and high fat diets (HFD) respectively. The HFD group was divided into multiple treatment groups: a high fat diet vehicle group (HFD), an orlistat (purchased as OTC drug Alli®) positive control treatment group (ORI, 40 mg/kg of animal weight, 2 times/day) and optionally a sibutramine positive control treatment group (10 mg/kg, 1 time/day). The HFD contained 340 g of fat/kg of HFD (310 g lard plus 30 g soybean oil; Harlan Laboratories, USA). The HFD was formulated to provide 60% of the total energy generated by the diet from fat by replacing carbohydrate energy with lard and soybean oil, whereas the normal diet (ND) group was fed a diet providing only 18% of the total diet energy from fat(Harlan Laboratories, USA).
Body weight was measured once each week and feed intake was measured twice per week. At the end of the experimental period, following a 12 hr. fasting period, the animals were anesthetized with ether, and blood was drawn from the abdominal vein. Liver and kidney and adipose tissues (epididymal, retroperitoneal, perirenal adipose tissues) were removed from each animal, rinsed with physiological saline, and weighed. Serum concentrations of glucose, total cholesterol, triglycerides, and LDL-cholesterol were determined using automatic analyzer (INTEGRA 400, Roche, Germany). Statistical significance of test results was measured using the Student's t-test.

[1] = mice fed a high fat diet, Mutamba fractions 250 mg/kg oral 2 times per day, mean
[2] = orlistat 40 mg/Kg/day oral, 8 weeks
[3] = orlistat 40 mg/kg oral, 7 weeks
[4] = orlistat 40 mg/kg, 2 times/day, listed as orlistat
[5] = score 0-3, orlistat 40 mg/kg oral
[6] = week 1, DIO mice, oral twice daily, mg/kg/day: ORI 40, Combo (Composition 1A) 800, Magnolia 100, Yerba Mate 500, Morus 200
[7] = week 1, DIO mice, combination (5:1) 1200 mg/kg twice a day by gavage, group mean
[8] = week 1, mice fed a high fat diet, Mutamba fractions 250 mg/kg oral 2 times per day, mean
[9] = week 2, DIO mice, oral twice daily, mg/kg/day: ORI 40, Combo (Composition 1A) 800, Magnolia 100, Yerba Mate 500, Morus 200
[10] = week 2, DIO mice, combination (5:1) 1200 mg/kg twice a day by gavage, group mean
[11] = week 2, mice fed a high fat diet, Mutamba fractions 250 mg/kg oral 2 times per day, mean
[12] = week 3, DIO mice, oral twice daily, mg/kg/day: ORI 40, Combo (Composition 1A) 800, Magnolia 100, Yerba Mate 500, Morus 200

CCCCCCCCCCC[C@@H](C[C@@H]1OC(=O)[C@H]1CCCCCC)OC(=O)[C@H](CC(C)C)NC=O [ORI, orlistat]
FER (Food efficiency ratio) (mice fed a high fat diet, FER = body weight gain (g/day)/food intake (g/day), Mutamba fractions 250 mg/kg oral 2 times per day, mean): 0.034
Body Weight Gain [1]: 0.093 g/day
Food Intake [1]: 2.769 g/day
Absolute Organ Weight: Epididymal Fat [2]: 2.03 g
Absolute Organ Weight: Liver [2]: 1.19 g
Absolute Organ Weight: PeriRenal Fat [2]: 0.29 g
Absolute Organ Weight: Retroperitoneal Fat [2]: 0.5 g
Absolute Organ Weight: Total Fat (sum of three fat pads) [2]: 2.82 g
Food Efficiency Ratio (FER) [2]: −0.001
Food Intake (average) [2]: 3.147 g/day
Relative Organ Weight: Epididymal Fat [2]: 0.05
Relative Organ Weight: Liver [2]: 0.03
Relative Organ Weight: PeriRenal Fat [2]: 0.01
Relative Organ Weight: Retroperitoneal Fat [2]: 0.01
Relative Organ Weight: Total Fat [2]: 0.07
Weight Gain (average) [2]: -0.004 g/day
Food Efficiency Ratio (FER) [3]: 0.000
Food Intake (average per day) [3]: 3.195 g/day
Weight Gain (average per day) [3]: 0.000 g/day
blood biochemistry parameters vs HFD group (orlistat 40 mg/kg, 2 times/day): statistically significant decrease in LDL-cholesterol; also recorded: statistically significant decreases in total cholesterol, LDL-cholesterol, and fasting glucose; also recorded: statistically significant decreases in ALT and LDL-cholesterol; also recorded: statistically significant decrease in ALT
body weight gain vs HFD group (orlistat 40 mg/kg, 2 times/day): greatest change in weight gain between week 2 and week 3; also recorded: statistically significant decreases in body weight gains each week after the first week of treatment; also recorded: statistically significant decreases in body weight gain across all weeks of the study; also recorded: statistically significant decreases in body weight gain from week 1 through to week 7; also recorded: statistically significant decreases in weight gain from week 1 through to week 8
body weight gain vs HFD group [4]: significant reduction in body weight gain at 7 weeks
weight gain per day, food intake per day, food efficiency ratio (FER) vs HFD group [4]: significantly reduced FER
Liver pathology: Hepatocellular ballooning (0-2) (score 0-2, orlistat 40 mg/kg oral): 0.67
Liver pathology: Lobular Inflammation (0-3) [5]: 1.33
Liver pathology: Steatosis (0-3) [5]: 0.67
NSAH (sum) [NASH score] (sum of scores, orlistat 40 mg/kg oral): 2.67
Total Body Weight (week 0, DIO mice, oral twice daily, mg/kg/day: ORI 40, Combo (Composition 1A) 800, Magnolia 100, Yerba Mate 500, Morus 200): 40.22
Total Body Weight (week 0, DIO mice, combination (5:1) 1200 mg/kg twice a day by gavage, group mean): 38.40
Total Body Weight (week 0, ORI 40 mg/kg, DIO mice (Table 52)): 39.96
Total Body Weight (week 0, ORI 40 mg/kg, DIO mice): 42.76
Body Weight (week 0, mice fed a high fat diet, Mutamba fractions 250 mg/kg oral 2 times per day, mean): 39.76
Weight Gain [6]: −2.24
Total Body Weight [6]: 37.98
Body Weight Gain (week 1, DIO mice, SIB 10 mg/kg, ORI 40 mg/kg, Mutamba extract 32 (G1) 1000 mg/kg/day oral, mean): −2.59
Body Weight Gain (week 1, DIO mice, SIB 10 mg/kg, ORI 40 mg/kg, Mutamba extract 33-2 G1 1000 mg/kg, mean): −3.05
Weight Gain (week 1, DIO mice, combination (1:1) 2000 mg/kg twice a day, group mean): −3.20
Weight Gain [7]: −3.20
Total Body Weight [7]: 35.20
Total Body Weight (week 1, ORI 40 mg/kg, DIO mice (Table 52)): 37.37
Total Body Weight (week 1, ORI 40 mg/kg, DIO mice): 38.73
Body Weight Gain (week 1, ORI 40 mg/kg, mice fed high fat diet): −4.00
Body Weight Gain [8]: −3.05
Body Weight [8]: 36.71
Weight Gain (week 1, orlistat 40 mg/kg oral): −5.43
Weight Gain [9]: −6.14
Total Body Weight [9]: 34.08
Body Weight Gain (week 2, DIO mice, SIB 10 mg/kg, ORI 40 mg/kg, Mutamba extract 32 (G1) 1000 mg/kg/day oral, mean): −2.90
Body Weight Gain (week 2, DIO mice, SIB 10 mg/kg, ORI 40 mg/kg, Mutamba extract 33-2 G1 1000 mg/kg, mean): −2.81
Weight Gain (week 2, DIO mice, combination (1:1) 2000 mg/kg twice a day, group mean): −4.88
Weight Gain [10]: −4.88
Total Body Weight [10]: 33.58
Total Body Weight (week 2, ORI 40 mg/kg, DIO mice (Table 52)): 37.05
Total Body Weight (week 2, ORI 40 mg/kg, DIO mice): 35.09
Body Weight Gain (week 2, ORI 40 mg/kg, mice fed high fat diet): −7.38
Body Weight Gain [11]: −2.81
Body Weight [11]: 36.95
Weight Gain (week 2, orlistat 40 mg/kg oral): −6.69
Weight Gain [12]: −4.91
Total Body Weight [12]: 35.32
Body Weight Gain (week 3, DIO mice, SIB 10 mg/kg, ORI 40 mg/kg, Mutamba extract 32 (G1) 1000 mg/kg/day oral, mean): −2.55
Body Weight Gain (week 3, DIO mice, SIB 10 mg/kg, ORI 40 mg/kg, Mutamba extract 33-2 G1 1000 mg/kg, mean): −2.63
Weight Gain (week 3, DIO mice, combination (1:1) 2000 mg/kg twice a day, group mean): −3.34
Weight Gain (week 3, DIO mice, combination (5:1) 1200 mg/kg twice a day by gavage, group mean): −3.34
